From the supplement of paper PMC10307832

Tests used:
Assay in all cases: relative viability (nuclei count vs DMSO), 5 days (fraction); higher = more cells survive
AZ3146 + Palbociclib = compound: CN1CCC(CC1)OC2=CC(=C(C=C2)NC3=NC=C4C(=N3)N(C(=O)N4C)C5CCCC5)OC [AZ3146] + CC(=O)c1c(C)c2cnc(Nc3ccc(N4CCNCC4)cn3)nc2n(C2CCCC2)c1=O [Palbociclib] (partner 0.5 µM)
How it was run: (§1)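 The day after seeding in 1536-well plates, lung cancer cell lines were treated by pin tool with a single drug, or with a fixed anchor-drug dose together with five library-drug doses (not always all listed) in √10 steps. After 5 days, a combined fix-and-stain solution (final 0.05% Triton X-100, 1% formaldehyde, 1 ug/ml Hoechst) was added. Nuclei counted on 4× images gave relative viability as treated counts over vehicle counts, reported as the median of duplicate plates.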

AZ3146 + AZD7762 = compound: CN1CCC(CC1)OC2=CC(=C(C=C2)NC3=NC=C4C(=N3)N(C(=O)N4C)C5CCCC5)OC [AZ3146] + NC(=O)Nc1cc(-c2cccc(F)c2)sc1C(=O)N[C@H]1CCCNC1 [AZD7762] (partner 0.2 µM)
How it was run: as §1

GSK-J4 + Alpelisib = compound: CCOC(=O)CCNc1cc(N2CCc3ccccc3CC2)nc(-c2ccccn2)n1 [GSK-J4] + Cc1nc(NC(=O)N2CCC[C@H]2C(N)=O)sc1-c1ccnc(C(C)(C)C(F)(F)F)c1 [Alpelisib] (partner 2 µM)
How it was run: as §1

AZ3146 + Bortezomib = compound: CN1CCC(CC1)OC2=CC(=C(C=C2)NC3=NC=C4C(=N3)N(C(=O)N4C)C5CCCC5)OC [AZ3146] + CC(C)C[C@H](NC(=O)[C@H](Cc1ccccc1)NC(=O)c1cnccn1)B(O)O [Bortezomib] (partner 0.002 µM)
How it was run: as §1

| Cell Line | relative viability (AZ3146 + Palbociclib; first compound 0.08 µM) | relative viability (AZ3146 + Palbociclib; first compound 0.253 µM) | relative viability (AZ3146 + Palbociclib; first compound 0.8 µM) | relative viability (AZ3146 + Palbociclib; first compound 2.53 µM) | relative viability (AZ3146 + Palbociclib; first compound 8 µM) | relative viability (AZ3146 + AZD7762; first compound 0.08 µM) | relative viability (AZ3146 + AZD7762; first compound 0.253 µM) | relative viability (AZ3146 + AZD7762; first compound 0.8 µM) | relative viability (AZ3146 + AZD7762; first compound 2.53 µM) | relative viability (AZ3146 + AZD7762; first compound 8 µM) | relative viability (GSK-J4 + Alpelisib; first compound 0.5 µM) | relative viability (GSK-J4 + Alpelisib; first compound 1.581 µM) | relative viability (GSK-J4 + Alpelisib; first compound 15.81 µM) | relative viability (GSK-J4 + Alpelisib; first compound 50 µM) | relative viability (AZ3146 + Bortezomib; first compound 0.08 µM) | relative viability (AZ3146 + Bortezomib; first compound 0.253 µM) | relative viability (AZ3146 + Bortezomib; first compound 0.8 µM) | relative viability (AZ3146 + Bortezomib; first compound 2.53 µM) | relative viability (AZ3146 + Bortezomib; first compound 8 µM) | relative viability (GSK-J4 + Alpelisib; first compound 5 µM) |
| --- | --- | --- | --- | --- | --- | --- | --- | --- | --- | --- | --- | --- | --- | --- | --- | --- | --- | --- | --- | --- |
| NCI-H522 | 1.15 | 0.902 | 1.14 | 0.894 | 1.1 | 0.803 | 0.57 | 0.807 | 0.698 | 0.577 | – | – | – | – | – | – | – | – | – | – |
| HCC-366 | 0.312 | 0.398 | 0.419 | 0.391 | 0.271 | 0.212 | 0.288 | 0.263 | 0.203 | 0.112 | 0.391 | 0.25 | 0.305 | 0.365 | 0.983 | 1.05 | 1.08 | 1.06 | 0.735 | – |
| A-427 | 0.482 | 0.521 | 0.497 | 0.493 | 0.463 | 0.622 | 0.665 | 0.56 | 0.527 | 0.508 | 1 | – | 1.08 | 0.561 | 0.995 | 1.06 | 0.94 | 1.07 | 0.875 | 1.17 |
| NCI-H2347 | 0.441 | 0.435 | 0.457 | 0.463 | 0.415 | 0.577 | 0.934 | 0.649 | 0.746 | 0.677 | 1.02 | 0.659 | 1.05 | 0.722 | 0.747 | 1.08 | 0.758 | 1.02 | 1.02 | 0.933 |
| NCI-H1792 | 0.507 | 0.664 | – | 0.679 | 0.669 | 0.414 | 0.631 | 0.641 | 0.601 | 0.617 | 0.708 | 0.664 | 0.575 | 0.837 | 0.784 | 1.04 | 1.05 | 0.976 | 1 | 0.734 |
| SK-LU-1 | 0.375 | 0.365 | 0.355 | 0.404 | 0.386 | – | – | – | – | – | 0.927 | 0.885 | 0.834 | 0.565 | – | – | 1.02 | 1.15 | 1.5 | 0.661 |
| RERF-LC-KJ | 1.05 | 1.17 | 1.01 | 1.21 | 0.833 | 0.879 | 0.61 | 0.883 | 0.976 | 0.972 | 0.65 | 0.732 | 0.744 | 0.551 | 1.07 | 1.15 | 1.24 | 1.04 | 0.98 | 0.803 |
| NCI-H1993 | 0.721 | 0.71 | 0.579 | 0.639 | 0.762 | 0.662 | 0.695 | 0.812 | 1.01 | 0.581 | 0.657 | 0.643 | 0.667 | 0.621 | 1.05 | 1.07 | 1.19 | 1.2 | 0.976 | 0.702 |
| NCI-H1734 | 0.308 | 0.376 | 0.387 | 0.3 | 0.317 | 0.262 | 0.535 | 0.545 | 0.563 | 0.337 | 0.679 | 0.597 | 0.671 | 0.591 | 0.98 | 1.03 | 0.895 | 0.992 | 0.834 | 0.568 |
| HCC-44 | 0.966 | 0.977 | 1.05 | 0.959 | 0.935 | 1.02 | 0.978 | 1.12 | 1 | 0.979 | 0.791 | 0.781 | 0.776 | 0.711 | 0.875 | 0.908 | 0.881 | 0.909 | 0.884 | 0.709 |
| NCI-H1944 | 0.302 | 0.322 | 0.298 | 0.39 | 0.326 | 0.311 | 0.509 | 0.482 | 0.516 | 0.469 | 0.833 | 0.709 | 0.897 | 0.822 | – | – | – | – | – | 0.964 |
| HCC-78 | 0.486 | 0.483 | 0.414 | 0.54 | 0.425 | – | 0.577 | 0.57 | 0.53 | 0.717 | 0.403 | 0.31 | – | 0.316 | – | 0.471 | 0.271 | 0.558 | 0.447 | 0.501 |
| NCI-H838 | 0.219 | 0.202 | 0.205 | 0.239 | 0.161 | 0.931 | 0.921 | 0.844 | 0.963 | 0.698 | 1.02 | 0.927 | 0.962 | 0.905 | 0.908 | 0.832 | 0.882 | 0.738 | 0.302 | – |
| SW 1573 | 0.359 | 0.368 | 0.421 | 0.401 | 0.358 | – | – | – | – | – | 0.669 | 0.715 | 0.721 | 0.454 | 0.995 | 1.03 | 1.09 | 0.869 | 0.777 | 0.718 |
| ChaGo-K-1 | 0.935 | 0.927 | 0.894 | 0.896 | 0.862 | 0.739 | 0.91 | 0.865 | 0.833 | 0.733 | – | – | – | – | 0.93 | 0.837 | 0.932 | 0.961 | 0.738 | – |
| LCLC-97TM1 | 0.245 | 0.247 | 0.232 | 0.225 | 0.188 | 0.311 | 0.339 | 0.262 | 0.381 | 0.273 | – | – | 0.24 | 0.164 | 0.53 | 0.792 | 0.569 | 0.973 | 0.172 | 0.271 |
| COR-L 105 | 0.408 | 0.365 | 0.377 | 0.346 | 0.372 | – | – | – | – | – | 1.11 | 0.99 | 0.912 | 1.16 | 0.677 | 0.896 | 0.78 | 0.554 | 0.294 | 1.07 |
| NCI-H1666 | 0.586 | 0.659 | 0.672 | 0.663 | 0.656 | 0.819 | 0.806 | 0.808 | 0.74 | 0.887 | 0.881 | – | 0.985 | 0.508 | 0.838 | 0.791 | 0.948 | 0.809 | 0.743 | 1.08 |
